Read-outs that look alike come from different tables or passages of the source.
Legend:
DU-145 cells = assay: Annexin V-FITC apoptosis assay, DU-145; assay type: cell-based, human; conditions: DU-145 cells exposed to IC50, 24 h; for percent of annexin V-FITC positive apoptotic cells (UR + LR): vehicle control 1.7%
MCF7 cell lines = assay: DNA-flow cytometry cell cycle analysis, MCF7; assay type: cell-based, human; conditions: MCF7, 24 h at IC50
[1] = test system: NCI-H522 (non-small cell lung cancer); assay: NCI-60 single dose screen, NCI-H522; assay type: cell-based; conditions: Homo sapiens, NCI-H522, read-out: inhibitory activity (cell growth inhibition)
full NCI 60-cell panel = assay: NCI-60 single dose screen, statements over several cell lines; assay type: cell-based, human; conditions: for inhibition at 10 µM: Homo sapiens
DU-145 cell lines = assay: DNA-flow cytometry cell cycle analysis, DU-145; assay type: cell-based, human; conditions: DU-145, 24 h at IC50
MCF-7 cells = assay: Annexin V-FITC apoptosis assay, MCF-7; assay type: cell-based, human; conditions: MCF-7 cells exposed to IC50, 24 h; for percentage of annexin V-FITC positive apoptotic cells (UR + LR): vehicle control 2.0%
SR (leukemia) = assay: NCI-60 single dose screen, SR; assay type: cell-based; conditions: Homo sapiens, read-out: percent growth inhibition
IGROV1 (ovarian cancer) = assay: NCI-60 single dose screen, IGROV1; assay type: cell-based; conditions: Homo sapiens, IGROV-1, read-out: percent growth inhibition
LOX IMVI (melanoma) = assay: NCI-60 single dose screen, LOX IMVI; assay type: cell-based; conditions: Homo sapiens, read-out: percent growth inhibition
DU-145 (prostate cancer) = assay: NCI-60 single dose screen, DU-145; assay type: cell-based; conditions: Homo sapiens, DU-145, read-out: percent growth inhibition
MCF7 (breast cancer) = assay: NCI-60 single dose screen, MCF7; assay type: cell-based; conditions: Homo sapiens, MCF7, read-out: percent growth inhibition
[2] = test system: MCF-7 breast cancer cell line; assay: MTT assay for cell viability, MCF7; assay type: cell-based; conditions: Homo sapiens, MCF7, read-out: Cytotoxicity IC50 (µM ± SE) MCF7, MTT assay, MCF7
[3] = 60 cell, read-out: cell growth inhibition

SMILES	rise of annexin V-FITC positive apoptotic cells compared with vehicle control (DU-145 cells)	percent of annexin V-FITC positive apoptotic cells (UR + LR) (DU-145 cells)	%G1 (MCF7 cell lines)	%G2/M (MCF7 cell lines)	%Pre-G1 (MCF7 cell lines)	inhibition at 10 µM (full NCI 60-cell panel; [3])	%G1 (DU-145 cell lines)	%G2/M (DU-145 cell lines)	increase of annexin V-FITC positive apoptotic cells compared with vehicle control (MCF-7 cells)	percentage of annexin V-FITC positive apoptotic cells (UR + LR) (MCF-7 cells)	also measured
O=C1NC(c2ccccc2)(c2ccccc2)C(=O)N1Cc1cn(-c2c3ccccc3nc3ccccc23)nn1 [Compound 10, 3-((1-(Acridin-9-yl)-1H-1,2,3-triazol-4-yl)methyl)-5,5-diphenylimidazolidine-2,4-dione]	2 fold	3.6%	43.5%	15.3%	13.2%	61 to 97%	42.9%	20.9%	5.3 fold	10.7%	inhibition at 10 µM [1]: 84.1%; inhibition at 10 µM (full NCI 60-cell panel; read-out: cell growth inhibition percent): 60.8 to 68.6%
O=c1ccn(Cc2cn(-c3c4ccccc4nc4ccccc34)nn2)c(=O)[nH]1 [Compound 9, 1-((1-(Acridin-9-yl)-1H-1,2,3-triazol-4-yl)methyl)pyrimidine-2,4(1H,3H)–dione]	–	–	–	39.8%	–	61 to 97%	41.5%	29.1%	6.4 fold	13%	inhibition at 10 µM (full NCI 60-cell panel; read-out: cell growth inhibition): 61.3 to 67%
CCCC(CCC)C(=O)OCc1cn(-c2c3ccccc3nc3ccccc23)nn1 [Compound 12, 1-(1-(Acridin-9-yl)-1H-1,2,3-triazol-4-yl)methyl valproate]	–	–	–	–	–	–	–	–	–	–	cell growth inhibition (in words) (full NCI 60-cell panel; against all cancer cell lines, single dose of 10 μM): either low or complete absence of cell growth inhibition
Cc1cc(=O)[nH]c(=O)n1Cc1cn(-c2c3ccccc3nc3ccccc23)nn1 [Compound 8, 1-((1-(Acridin-9-yl)-1H-1,2,3-triazol-4-yl)methyl)-6-methylpyrimidine-2,4(1H,3H)-dione]	sixfold	10.2%	24.4%	48.3%	24.4%	61 to 97%	34.6%	39.6%	10 fold	20.3%	inhibition at 10 µM (SR (leukemia)): 88.6%; inhibition at 10 µM (IGROV1 (ovarian cancer)): 67%; inhibition at 10 µM (LOX IMVI (melanoma)): 84.8%; %Pre-G1 (DU-145 cell lines): 12.9%; inhibition at 10 µM (DU-145 (prostate cancer)): 84.3%; inhibition at 10 µM (MCF7 (breast cancer)): 97.5%
COc1cccc2c1C(=O)c1c(O)c3c(c(O)c1C2=O)C[C@@](O)(C(=O)CO)C[C@@H]3O[C@H]1C[C@H](N)[C@H](O)[C@H](C)O1 [Doxorubicin]	–	–	–	–	–	–	–	–	–	–	IC50 [2]: 2 µM

— paper PMC8757608 (Journal of Enzyme Inhibition and Medicinal Chemistry, 2022)
